# In patent publication US20120022121A1, “INDOLES, DERIVATIVES AND ANALOGS THEREOF AND USES THEREFOR” (priority 2007, published 2012):
# Legend:
# [1] = test system: PC-3; assay: Cytotoxicity assay (SRB, 96 h); type: cell-based; conditions: Homo sapiens, PC-3, 96 h
# [2] = test system: WM164; assay: Cytotoxicity assay (SRB, 48 h); type: cell-based, human; conditions: Homo sapiens, WM164 melanoma
# [3] = test system: A375; assay: Cytotoxicity assay (SRB, 48 h); type: cell-based, human; conditions: Homo sapiens
# [4] = test system: PPC-1; assay: Cytotoxicity assay (SRB, 96 h); type: cell-based; conditions: Homo sapiens, PPC-1, 96 h
# [5] = test system: Du 145; assay: Cytotoxicity assay (SRB, 96 h); type: cell-based; conditions: Homo sapiens; Du 145, 96 h
# [6] = test system: LNCaP; assay: Cytotoxicity assay (SRB, 96 h); type: cell-based; conditions: Homo sapiens
# [7] = test system: DU-145; assay: Cell viability SRB assay, 96 h; type: cell-based; conditions: Homo sapiens, DU-145, 96 h
# Description: (§1) Cell viability (LNCaP, PC-3 prostate, DU145, PPC-1, and TSU-Pr1 prostate cancer cell lines, HT-29 colon cancer cell line, and MCF-7 breast cancer cell line) was quantitated using the sulforhodamine B (SRB) assay after 96 h coincubation with different concentrations of compound in 96-well plates. Cell viability of leukemia cells (K562 and doxorubicin-resistant K562/Dox) was quantitated by MTT assay after 96 h coincubation with different concentrations of compound in 96-well plates. Drug-induced apoptosis was determined by anti-histone ELISA assay and DNA laddering. Cell cycle progression was assessed by propidium iodide staining and fluorescence-activated cell sorting (FACS) analysis. In vitro tubulin polymerization assay was determined by CytoDYNAMIX ScreenTM3 (CDS-03) kits according to the manufacturer's instructions. Anti-apoptosis protein (Bcl-2 and Bcl-xl) and pro-apoptosis protein (Bax) were examined in LNCaP and PC-3 after 24 h incubation with different concentrations of compound 13 by Western blot assay. In vivo PC-3 xenograft studies were conducted by i.v. dosing of 50 mg/kg, 100 mg/kg and 150 mg/kg for 2 weeks.
# (§2) Cells were plated in 96-well plates at a density of 800-5,000 cells/well, depending on the cell line, in their required growth media containing 10% fetal bovine serum. Preliminary studies were performed with each cell line using a variety of cell densities and incubation times to determine appropriate seeding densities. The compound of interest was dissolved in DMSO, diluted in cell culture medium (final DMSO concentration was less than 0.5% v/v), and added to quadruplicate wells at final concentrations ranging from 0 to 100 μM. Control wells to which only drug-free vehicle was added were included as negative controls.
# (§3) Cells were incubated for 96 hour at 37° C. in a humidified atmosphere containing 5% carbon dioxide.
# (§4) Cells were stained with SRB solution. […] WinNonlin was provided by a Pharsight Academic License to The Ohio State University.
# [8] = test system: PC-3; assay: Cell viability SRB assay, 96 h; type: cell-based; conditions: Homo sapiens, PC-3, 96 h
# Description: as §1, §2, §3, §4
# [9] = test system: LNCaP; assay: Cell viability SRB assay, 96 h; type: cell-based; conditions: Homo sapiens
# Description: as §1, §2, §3, §4
# [10] = test system: PPC-1; assay: Cell viability SRB assay, 96 h; type: cell-based; conditions: Homo sapiens, PPC-1, 96 h
# Description: as §1, §2, §3, §4
# [11] = test system: TSU; assay: Cell viability SRB assay, 96 h; type: cell-based; conditions: Homo sapiens, TSU (TSU-Pr1)
# Description: as §1, §2, §3, §4
# [12] = test system: melanoma and prostate cancer cell lines; assay: Cytotoxicity assay (SRB), summary over the cell lines of Table 3; type: cell-based; conditions: Homo sapiens
SMILES,IC50 [7],IC50 [8],IC50 [9],IC50 [10],other results
"COc1cc(C(=O)c2cc3cc(F)ccc3[nH]2)cc(OC)c1OC [Compound 117, (5-Fluoro-1H-indol-2-yl)(3,4,5-trimethoxyphenyl)methanone]",–,–,–,–,"melting point: 196 to 198 °C; IC50 [1]: 9.16 µM; IC50 ([2]; WM164, 48 h): 2.26 µM; IC50 ([3]; A-375, 48 h, A375 melanoma): 2.21 µM; IC50 [4]: 1 µM; IC50 [5]: 3.42 µM; IC50 [6]: 8.63 µM"
"COc1cc(C(O)c2cccc(-c3cc4ccccc4n3S(=O)(=O)c3ccccc3)c2)cc(OC)c1OC (centres unmarked) [Compound 66, [3-(1-Benzenesulfonyl-1H-indol-2-yl)-phenyl]-(3,4,5-trimethoxy-phenyl)-methanol]",61.5 µM,45 µM,10.1 µM,35.3 µM,–
"COc1cc(C(=O)c2cc3ccc(C)cc3[nH]2)cc(OC)c1OC [Compound 116, (6-Methyl-1H-indol-2-yl)(3,4,5-trimethoxyphenyl)methanone]",–,–,–,–,"melting point: 179 to 181 °C; IC50 [1]: > 10 µM; IC50 ([2]; WM164, 48 h): > 10 µM; IC50 ([3]; A-375, 48 h, A375 melanoma): > 10 µM; IC50 [4]: > 10 µM; IC50 [5]: > 10 µM; IC50 [6]: > 10 µM"
"O=C(c1ccc(F)cc1)c1cccc(-c2cc3ccccc3n2S(=O)(=O)c2ccccc2)c1 [Compound 126, [3-(1-Benzenesulfonyl-1H-indol-2-yl)-phenyl]-(4-fluoro-phenyl)-methanone]",4.01 µM,1.5 µM,1.56 µM,0.55 µM,–
"COc1ccc2cc(C(=O)c3cc(OC)c(OC)c(OC)c3)n(S(=O)(=O)c3ccccc3)c2c1 [Compound 107, (6-Methoxy-1-(phenylsulfonyl)-1H-indol-2-yl)(3,4,5-trimethoxyphenyl)methanone]",–,–,–,–,"melting point: 156 to 158 °C; IC50 [1]: 2.66 µM; IC50 [2]: > 10 µM; IC50 ([3]; A-375, A375 melanoma): 8.22 µM; IC50 [4]: 1.05 µM; IC50 [5]: > 10 µM; IC50 [6]: > 10 µM"
"COc1cc(C(=O)c2cc3ccc(F)cc3n2S(=O)(=O)c2ccccc2)cc(OC)c1OC [Compound 106, (6-Fluoro-1-(phenylsulfonyl)-1H-indol-2-yl)(3,4,5-trimethoxyphenyl)methanone]",–,–,–,–,"melting point: 171 to 173 °C; IC50 [1]: > 10 µM; IC50 ([2]; WM164, 48 h): > 10 µM; IC50 ([3]; A-375, 48 h, A375 melanoma): > 10 µM; IC50 [4]: > 10 µM; IC50 [5]: > 10 µM; IC50 [6]: > 10 µM"
"COc1cc(-c2cccc(C(=O)c3cc4ccccc4n3S(=O)(=O)c3ccccc3)c2)cc(OC)c1OC [Compound 64, (1-Benzenesulfonyl-1H-indol-2-yl)-(3′,4′,5′-trimethoxy-biphenyl-3-yl)-methanone]",29.2 µM,29.2 µM,4.9 µM,44.7 µM,IC50 [11]: 58.9 µM
"COc1cc(C(O)c2cccc(-c3cc4ccccc4[nH]3)c2)cc(OC)c1OC (centres unmarked) [Compound 66A, [3-(1H-Indol-2-yl)-phenyl]-(3,4,5-trimethoxy-phenyl)-methanol]",7.2 µM,5.9 µM,3.1 µM,1.9 µM,–
c1ccc2[nH]ccc2c1 [indole],> 100 µM,> 100 µM,> 100 µM,> 100 µM,IC50 [11]: > 100 µM
"O=S(=O)(c1ccccc1)n1c(Cc2cccc(-c3cc4ccccc4n3S(=O)(=O)c3ccccc3)c2)cc2ccccc21 [Compound 9, (1-Benzenesulfonyl-1H-indol-2-yl)-[3-(1-benzenesulfonyl-1H-indol-2-yl)phenyl]methane]",> 100 µM,> 100 µM,> 100 µM,> 100 µM,melting point: 76 to 78 °C; IC50 [11]: > 100 µM
"COc1cc(-c2cccc(C(=O)c3cc4ccccc4[nH]3)c2)cc(OC)c1OC [Compound 65, (1H-Indol-2-yl)-(3′,4′,5′-trimethoxy-biphenyl-3-yl)-methanone]",16.2 µM,4.6 µM,3 µM,4.1 µM,–
"COc1cc(C(=O)c2cc3ccc(F)cc3[nH]2)cc(OC)c1OC [Compound 113, (6-Fluoro-1H-indol-2-yl)(3,4,5-trimethoxyphenyl)methanone]",–,–,–,–,"IC50 [1]: > 10 µM; IC50 ([2]; WM164, 48 h): > 10 µM; IC50 ([3]; A-375, 48 h, A375 melanoma): > 10 µM; IC50 [4]: > 10 µM; IC50 [12]: > 10 µM; IC50 [5]: > 10 µM; IC50 [6]: > 10 µM"
"COC(=O)c1csc(C(=O)c2c[nH]c3ccccc23)n1 [Compound 59, methyl 2-(1H-indole-3-carbonyl)thiazole-4-carboxylate]",–,90.4 ± 27.5 µM,58.5 ± 14.3 µM,–,–
"COc1cc(C(=O)c2cccc(-c3cc4ccccc4n3S(=O)(=O)c3ccccc3)c2)cc(OC)c1OC [Compound 67, [3-(1-Benzenesulfonyl-1H-indol-2-yl)-phenyl]-(3,4,5-trimethoxy-phenyl)-methanone]",18 µM,9.2 µM,7.8 µM,68.5 µM,–
"COc1cc(-c2cccc(C(O)c3cc4ccccc4n3S(=O)(=O)c3ccccc3)c2)cc(OC)c1OC (centres unmarked) [Compound 63, (1-Benzenesulfonyl-1H-indol-2-yl)-(3′,4′,5′-trimethoxy-biphenyl-3-yl)-methanol]",38 µM,11.6 µM,4.2 µM,21.8 µM,–
"COc1cc(C(=O)c2cc3ccc(Cl)cc3n2C)cc(OC)c1OC [Compound 119, (6-Chloro-1-methyl-1H-indol-2-yl)(3,4,5-trimethoxyphenyl)methanone]",–,–,–,–,"IC50 [1]: 3.76 ± 0.83 µM; IC50 [2]: 8.08 ± 1.21 µM; IC50 ([3]; A-375, A375 melanoma): 6.65 ± 0.33 µM; IC50 [4]: 4.33 ± 0.72 µM; IC50 [5]: > 10 µM; IC50 [6]: 1.04 ± 0.25 µM"
"COc1ccc(C(=O)c2cccc(-c3cc4ccccc4[nH]3)c2)cc1 [Compound 84, [3-(1H-Indol-2-yl)-phenyl]-(4-methoxy-phenyl)-methanone]",1.4 µM,2.6 µM,3.7 µM,0.9 µM,–
OCc1cccc(-c2cc3ccccc3[nH]2)c1 [Compound 130],21.8 µM,65.1 ± 5.3 µM,23.8 ± 3 µM,26.6 µM,–
"OC(c1cccc(-c2cc3ccccc3[nH]2)c1)c1cc2ccccc2[nH]1 (centres unmarked) [Compound 11, (1H-indol-2-yl)-[3-(1H-indol-2-yl)phenyl]methanol]",11.6 µM,13.5 µM,5.6 µM,3.8 µM,melting point: 82 to 85 °C
"O=C(c1ccccc1)c1cccc(-c2cc3ccccc3[nH]2)c1 [Compound 80A, [3-(1H-Indol-2-yl)-phenyl]-phenyl-methanone]",2.12 µM,2 µM,1.74 µM,1.52 µM,–
"O=C(c1ccc(F)cc1)c1cccc(-c2ccc3[nH]ccc3c2)c1 [Compound 125, (4-Fluoro-phenyl)-[3-(1H-indol-5-yl)-phenyl]-methanone]",5.73 µM,2.7 µM,2.78 µM,0.63 µM,–
